Read-outs that look alike come from different tables or passages of the source.
Assays:
DGKα = DGKα (Homo sapiens (Human), UniProt P23743); test: biochemical; format: biochemical
human DGKζ = human DGKζ (Homo sapiens (Human), UniProt Q13574); test: biochemical; format: biochemical
[1] = system: Human venous whole blood (IFN-γ); test: Human whole blood IFN-γ assay; format: cell-based
Description: Assay 10: Human Whole Blood IFN-γ Assay
Human venous whole blood (22.5 μL per well), obtained from healthy donors, was pre-treated with compounds for one hour at 37° C. in a humidified 95% air/5% CO2 incubator. The blood was stimulated with 2.5 μL anti-human CD3 and anti-CD28 mAb at a final concentration of 1 μg/mL each for 24 hours at 37° C. IFN-γ in the supernatants was measured using AlphLISA kit (Cat #AL217).

[2] = liposome (LIPGLO) assay, read-out: DGKα LIPGLO IC50
[3] = liposome (LIPGLO) assay, read-out: DGKζ LIPGLO IC50
[4] = Homo sapiens, 24 h, human whole blood, anti-CD3 plus anti-CD28, 24 hours, read-out: INFg Whole Blood Normalized Agonist EC50
[5] = human whole blood, anti-CD3 plus anti-CD28, 24 hours, read-out: INFg Whole Blood Normalized Agonist EC50

Sequence of human DGKζ (Q13574 whole entry, looked up): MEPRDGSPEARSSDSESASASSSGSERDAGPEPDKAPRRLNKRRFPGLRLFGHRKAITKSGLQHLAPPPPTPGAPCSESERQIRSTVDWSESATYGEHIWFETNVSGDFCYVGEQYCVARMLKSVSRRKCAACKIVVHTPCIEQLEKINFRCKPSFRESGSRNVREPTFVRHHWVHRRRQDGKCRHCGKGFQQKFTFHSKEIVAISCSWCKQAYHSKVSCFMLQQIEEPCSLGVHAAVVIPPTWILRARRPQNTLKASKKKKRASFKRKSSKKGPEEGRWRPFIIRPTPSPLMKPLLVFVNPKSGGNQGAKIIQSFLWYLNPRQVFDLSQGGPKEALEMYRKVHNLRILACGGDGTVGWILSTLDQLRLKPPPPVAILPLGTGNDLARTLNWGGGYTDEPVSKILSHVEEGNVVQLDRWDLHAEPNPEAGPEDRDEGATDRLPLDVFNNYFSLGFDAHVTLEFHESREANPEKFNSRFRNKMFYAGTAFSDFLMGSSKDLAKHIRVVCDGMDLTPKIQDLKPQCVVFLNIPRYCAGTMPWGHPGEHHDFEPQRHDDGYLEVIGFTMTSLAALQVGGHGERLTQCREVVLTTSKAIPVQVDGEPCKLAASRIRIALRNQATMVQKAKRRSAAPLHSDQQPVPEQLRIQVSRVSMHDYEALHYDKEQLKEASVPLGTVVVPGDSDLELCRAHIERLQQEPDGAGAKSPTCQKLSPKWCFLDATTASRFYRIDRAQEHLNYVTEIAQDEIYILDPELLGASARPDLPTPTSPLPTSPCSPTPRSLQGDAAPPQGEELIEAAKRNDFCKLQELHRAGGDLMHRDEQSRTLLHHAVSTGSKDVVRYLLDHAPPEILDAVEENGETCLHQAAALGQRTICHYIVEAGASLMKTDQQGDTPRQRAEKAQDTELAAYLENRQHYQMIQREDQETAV
Sequence of DGKα (P23743 whole entry, looked up): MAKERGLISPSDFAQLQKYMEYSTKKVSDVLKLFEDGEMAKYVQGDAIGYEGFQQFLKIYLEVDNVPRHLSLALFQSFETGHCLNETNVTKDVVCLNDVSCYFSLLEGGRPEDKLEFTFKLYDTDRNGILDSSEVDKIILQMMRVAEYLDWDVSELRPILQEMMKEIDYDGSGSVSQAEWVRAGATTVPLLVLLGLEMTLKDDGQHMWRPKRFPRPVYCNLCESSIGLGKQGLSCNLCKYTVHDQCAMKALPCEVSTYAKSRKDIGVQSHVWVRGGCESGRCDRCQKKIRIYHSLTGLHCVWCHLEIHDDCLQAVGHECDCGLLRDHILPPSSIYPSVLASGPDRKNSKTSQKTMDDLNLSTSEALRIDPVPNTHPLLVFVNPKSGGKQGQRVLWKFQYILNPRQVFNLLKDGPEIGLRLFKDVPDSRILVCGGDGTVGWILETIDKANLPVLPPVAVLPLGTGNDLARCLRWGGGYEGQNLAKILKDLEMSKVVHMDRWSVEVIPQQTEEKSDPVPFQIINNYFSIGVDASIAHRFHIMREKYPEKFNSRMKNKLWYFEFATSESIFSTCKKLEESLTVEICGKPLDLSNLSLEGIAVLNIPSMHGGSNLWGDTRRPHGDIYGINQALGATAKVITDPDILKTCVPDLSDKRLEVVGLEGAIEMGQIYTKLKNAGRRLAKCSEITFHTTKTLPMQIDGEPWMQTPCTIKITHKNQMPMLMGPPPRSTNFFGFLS

SMILES | IC50 (DGKα; [2]) [µM] | IC50 (human DGKζ; [3]) [µM] | EC50 [1, 4] [µM] | other results
CC[C@@H]1CN(c2cc(=O)n(C)c3ccc(C#N)nc23)CC[C@H]1Oc1ccc(OC(C)(C)C)cc1 (single isomer, unassigned) [Example 159] | 0.13 | 2.3 | 4.2 | –
Cc1cc(OC2CCN(c3cc(=O)n(C)c4ccc(C#N)nc34)CC2)nc(C)n1 [Example 70, 8-(4-((2,6-dimethylpyrimidin-4-yl)oxy)piperidin-1-yl)-5-methyl-6-oxo-5,6-dihydro-1,5-naphthyridine-2-carbonitrile] | 12 | 11 | 20 | –
Cc1cccc(O[C@@H]2CCN(c3cc(=O)n(C)c4ccc(C#N)nc34)C[C@H]2C)c1 (single isomer, unassigned) [Example 108] | 0.91 | 11 | 3 | –
C[C@@H]1CN(c2c(C#N)c(=O)n(C)c3ccc(C#N)nc23)CC[C@@H]1Oc1ccc(C(F)(F)F)cc1 [Example 190, 5-methyl-8-((3R,4S)-3-methyl-4-(4-(trifluoromethyl)phenoxy)piperidin-1-yl)-6-oxo-5,6-dihydro-1,5-naphthyridine-2,7-dicarbonitrile] | – | – | – | IC50 (DGKα; Table A, liposome (LIPGLO) assay, read-out: DGKα): 2.2 µM; IC50 (human DGKζ; Table A, liposome (LIPGLO) assay, read-out: DGKζ): 3.1 µM; EC50 ([1]; human whole blood IFN-γ, read-out: INFg Whole Blood): 20 µM
CCCCCc1ccc(OC2CCN(c3cc(=O)n(C)c4ccc(C#N)nc34)CC2)cc1 [Example 62, 5-methyl-6-oxo-8-(4-(4-pentylphenoxy)piperidin-1-yl)-5,6-dihydro-1,5-naphthyridine-2-carbonitrile] | 1.5 | 5.2 | 20 | –
CC[C@@H]1CN(c2cc(=O)n(C)c3ccc(C#N)nc23)CC[C@H]1Oc1cccc(C(F)(F)F)c1 (single isomer, unassigned) [Example 141] | 0.068 | 0.26 | – | EC50 [1, 5]: 0.5 µM
Cc1cccc(O[C@@H]2CCN(c3cc(=O)n(C)c4ccc(C#N)nc34)C[C@H]2C)c1 [Example 107, 5-methyl-8-((3R,4R)-3-methyl-4-(m-tolyloxy)piperidin-1-yl)-6-oxo-5,6-dihydro-1,5-naphthyridine-2-carbonitrile] | – | – | 13 | IC50 (DGKα; DGKα LIPGLO IC50): 0.13 µM; IC50 (human DGKζ; DGKζ LIPGLO IC50): 24 µM
Cn1c(=O)cc(N2CCC(Oc3nccc4cccnc34)CC2)c2nc(C#N)ccc21 [Example 74, 8-(4-((1,7-naphthyridin-8-yl)oxy)piperidin-1-yl)-5-methyl-6-oxo-5,6-dihydro-1,5-naphthyridine-2-carbonitrile] | 2.8 | 3.3 | 20 | –
COc1cc(OC2CCN(c3cc(=O)n(C)c4ccc(C#N)nc34)CC2)nc2cc(Cl)ccc12 [Example 73, 8-(4-((7-chloro-4-methoxyquinolin-2-yl)oxy)piperidin-1-yl)-5-methyl-6-oxo-5,6-dihydro-1,5-naphthyridine-2-carbonitrile] | 2.2 | 8.3 | 20 | –
Cn1c(=O)cc(N2CCC(Oc3ncnc4ccccc34)CC2)c2nc(C#N)ccc21 [Example 71, 5-methyl-6-oxo-8-(4-(quinazolin-4-yloxy)piperidin-1-yl)-5,6-dihydro-1,5-naphthyridine-2-carbonitrile] | 2.3 | 3 | 20 | –
CCC(C)(C)c1ccc(O[C@@H]2CCN(c3cc(=O)n(C)c4ccc(C#N)nc34)C[C@H]2C)cc1 (single isomer, unassigned) [Example 84] | 0.048 | 23 | – | EC50 [1, 5]: 1.2 µM
Cc1ccc(O[C@@H]2CCN(c3cc(=O)n(C)c4ccc(C#N)nc34)C[C@H]2C)cc1 [Example 119, 5-methyl-8-((3R,4R)-3-methyl-4-(p-tolyloxy)piperidin-1-yl)-6-oxo-5,6-dihydro-1,5-naphthyridine-2-carbonitrile] | 0.24 | 20 | 6.6 | –
C[C@@H]1CN(c2cc(=O)n(C)c3ccc(C#N)nc23)CC[C@H]1Oc1ccc(C2CCCC2)cc1 (single isomer, unassigned) [Example 101] | 0.43 | 6.8 | – | EC50 [1, 5]: 1.4 µM
